The text below walks through data of paper PMC12040169 (PLOS Biology, 2025).

The first series in a line: in vitro. Particulars: human, hela cells, % viability.
In general, viability refers to a read-out of living cells in per cent, often relative to untreated cells. Consider `COc1ccc(C(=O)N(CCC#N)Cc2ccco2)cc1` [CBK304862], for which the viability at 28.5 h, 10 µM came to 93.5%.

Turning to `COCCOCCCC(=O)OCC1Cc2cc(F)ccc2O1` (stereo not drawn) [CBK304886], the viability at 28.5 h, 10 µM is 91.2%.

As for `CC(C)c1ccc(C(C)NC(=O)Cn2cc(C(=O)Nc3ccc(F)cc3)ccc2=O)cc1` (stereo not drawn) [CBK286049], the viability at 28.5 h, 10 µM amounted to 97.6%.

Take `CCNC(=O)C1(NC(=O)Cc2cn3cccc(C)c3n2)CCCCC1` [CBK304933]: the viability at 28.5 h, 10 µM came to 106%. Same read-out and setting: with `COCCCn1c(=O)[nH]c2ncc(-c3cccc(OC)c3)nc21` [CBK064519] the figure was 108%; with `O=C(OCc1ccccc1)N1CCC2(CC1)CN(c1ccc([N+](=O)[O-])cn1)CCO2` [CBK161111T], 92%. The same measure, in the same setting: for `OC(CNCCc1cccnc1)COc1cccc2c1CCCC2` (stereo not drawn) [CBK002237] the value was 106%. On to `COC(C)(C)C(=O)N1CCCC(c2ccc(Cc3cccc(C(F)(F)F)c3)cn2)C1` (stereo not drawn) [CBK286124], for which the viability at 28.5 h, 10 µM is 107%.

Take `CCCNC(=O)N1CCC(n2cnc3cccnc32)CC1` [CBK282282]: the viability at 28.5 h, 10 µM stood at 84.3%. Consider `O=C(Cn1ncc2cccn2c1=O)NCc1ccc(F)cc1` [CBK283851], for which the viability at 28.5 h, 10 µM turned out to be 82.8%. On the same count and under the same terms, with `CCn1c(COc2cccc(C)c2)nnc1SCC(=O)c1ccccc1` [CBK267143] the figure was 97.4%; with `CCOC(=O)c1c(NC(=S)N2CCN(S(C)(=O)=O)CC2)sc(C)c1-c1ccccc1` [CBK267072], 98%.

With `COc1cccc2cc(C(=O)Nc3cccc(C)n3)oc12` [CBK287659], the viability at 28.5 h, 10 µM came out at 94.5%.

`COc1ccc(-n2c(=O)[nH]cc(C(=O)N3CCc4ccccc43)c2=O)cc1OC` [CBK287555]: the viability at 28.5 h, 10 µM came out at 105%.

For the molecule `CC(=O)Nc1cccc(-c2ccc(Nc3cccnc3)nc2)c1` [CBK037703], the viability at 28.5 h, 10 µM was found to be 96.7%.

Take `Cc1cccc(C)c1N1CCN(CC(O)COc2ccc3c(C)cc(=O)oc3c2)CC1` (stereo not drawn) [CBK270084]: the viability at 28.5 h, 10 µM came out at 91.2%. The same measure, in the same setting: for `Cc1cc(NC(=O)c2c(F)cccc2F)nc2c1c(=O)oc1ccccc12` [CBK291115] the value was 110%; for `COc1cc(-c2cn3ccnc3c(N3CCN(c4ccncc4)CC3)n2)cc(OC)c1OC` [CBK037896], 86.6%. Still for that read-out and setting: for `CC(C)NC(=O)c1cc(C2CCN(C(=O)CCOc3ccccc3F)C2)nc2ccccc12` (stereo not drawn) [CBK285917] the value was 101%; for `CC(C)NC(=S)NC(=O)C1CCC1` [CBK010718], 86.2%.

In the case of `OCCN(Cc1cccnc1)Cc1cccn1-c1ccccc1Cl` [CBK282936], the viability at 28.5 h, 10 µM was determined as 89.7%.

For `OCCCN1CCC(Oc2cncc(OCc3cccnc3)n2)C1` (stereo not drawn) [CBK084465], the viability at 28.5 h, 10 µM is 91.7%. The same measure, in the same setting: for `O=S(=O)(Nc1cccc(Cl)c1)c1ccc(OC(F)(F)F)cc1` [CBK044769] the value was 109%. Turning to `CCOC(=O)c1c(NC(=O)CNCc2cccnc2)sc2c1CCCC2` [CBK304577], the viability at 28.5 h, 10 µM came out at 94%. The same measure, in the same setting: for `O=C(O)/C=C\C(=O)Nc1ccc(OCC(=O)O)cc1` [CBK264449] the value was 102%; for `CC(=O)Nc1ccc(S(=O)(=O)N2CCC(N3CCOCC3)CC2)cc1` [CBK264653G], 116%. Consider `CCN1CC(C(=O)Nc2nc3c(s2)CCCCCC3)CC1=O` (stereo not drawn) [CBK281526], for which the viability at 28.5 h, 10 µM was 84.2%. For the molecule `O=C(CN1C(=O)C2C3c4ccccc4C(c4ccccc43)C2C1=O)OCC(=O)c1ccc(F)cc1` (stereo not drawn) [CBK264861], the viability at 28.5 h, 10 µM was 106%. For `NS(=O)(=O)c1cccc(NC(=O)c2cccnc2)c1` [CBK024417], the viability at 28.5 h, 10 µM was determined as 93.6%. Regarding `O=C(O)c1ccc(S(=O)(=O)NCc2ccc3c(c2)OCO3)cc1` [CBK262360], the viability at 28.5 h, 10 µM is 97%. On the same count and under the same terms, for `CCCCCNC(=O)N1CCN(CCCC(c2ccc(F)cc2)c2ccc(F)cc2)CC1` [CBK024917C] the value was 103%.

Turning to `COc1cncc(-c2cccc(N3CCN(CCN(C)C)CC3)n2)c1` [CBK037024], the viability at 28.5 h, 10 µM is 97.4%. On the same count and under the same terms, with `O=C(O)CCSc1nccc(C(F)(F)F)n1` [CBK107864] the figure was 87.5%; with `CCC(CO)Nc1nc(-c2ccc(O)cc2)cn2ccnc12` (stereo not drawn) [CBK037471], 106%. As for `CC(C)(C)OC(=O)n1cccc1-c1cncc(-c2ccc(C(=O)N3CCOCC3)cc2)n1` [CBK138520], the viability at 28.5 h, 10 µM came to 100%. As to `Cc1cc(-c2cc3nc(C)c(C)c(O)n3n2)c(C)o1` [CBK284500], the viability at 28.5 h, 10 µM came out at 90.4%. Same read-out and setting: with `Cc1noc(-c2ccccc2)c1CN1CCCN(S(=O)(=O)c2ccc(C(F)(F)F)cc2Cl)CC1` [CBK063104] the figure was 103%; with `O=C1/C(=C/c2c(NCCCn3ccnc3)nc3ccccn3c2=O)SC(=S)N1CC1CCCO1` (stereo not drawn) [CBK111310], 99.3%; with `CN1CCN(CCCNC(=O)N2CCN(c3ccccc3)CC2)CC1` [CBK155168], 101%. As to `O=C(Nc1ccc(S(=O)(=O)NCCc2ccccc2)cc1)c1ccc2c(c1)OCO2` [CBK265591], the viability at 28.5 h, 10 µM is 108%. For `COc1ccc([C@@]23CC[C@@H](NC(=O)c4cc(F)c(Cl)cc4Cl)C[C@@H]2N(C)CC3)cc1OC` [CBK074264T], the viability at 28.5 h, 10 µM was determined as 97.4%. In the case of `CC(CCN1CCN(Cc2ccccc2)CC1)c1ccccc1` (stereo not drawn) [CBK261902], the viability at 28.5 h, 10 µM stood at 89.1%. The same measure, in the same setting: with `O=C(c1ccc(OC(F)(F)F)cc1)N1CCN(c2nnnn2-c2ccccc2)CC1` [CBK296622] the figure was 93.5%.

Take `NC(=O)CC[C@H](N)C(=O)N1CC[C@@H]2NC(=O)[C@H](Cc3ccccc3)NC(=O)C3(C/C=C/C[C@@H]2C1)CCOCC3` [CBK292199]: the viability at 28.5 h, 10 µM turned out to be 109%. The same measure, in the same setting: with `CN1C(=S)SC(C)(N(O)C(=O)NC2CCCCC2)C1(C)C` (stereo not drawn) [CBK008916] the figure was 110%; with `COc1cc(CNC(=O)c2ccc3[nH]ccc3c2)cc(OC)c1OC` [CBK149073], 91%. As to `Cn1cc(CCC(=O)N2CCN(Cc3ccccn3)CC2)cn1` [CBK305094], the viability at 28.5 h, 10 µM turned out to be 113%. Turning to `O=C1COCC(=O)N1c1ccc(I)cc1` [CBK086499], the viability at 28.5 h, 10 µM turned out to be 87.5%. `CCCCN(C)c1c(C)nc2c(OCc3ccc(S(=O)(=O)N(C)C)cc3)cccn12` [CBK147189]: the viability at 28.5 h, 10 µM turned out to be 96.2%. For `CCOC(=O)N1CCN(Cc2ccc(OCc3cccnc3)cc2)CC1` [CBK305883], the viability at 28.5 h, 10 µM turned out to be 79.1%. As for `[O-][S+](c1ccc(Cl)c(Cl)c1)c1cc2c(N3CCCNCC3)nccc2s1` (stereo not drawn) [CBK038304C], the viability at 28.5 h, 10 µM was 71.2%. Regarding `CCOC(=O)c1[nH]c(C)c(C(=O)N/N=C/c2ccc(-c3ccc(Cl)cc3)o2)c1C` [CBK262503], the viability at 28.5 h, 10 µM came out at 95%. The same measure, in the same setting: with `COc1ccccc1CCCNC(=O)c1ccc(=O)n(C)c1` [CBK282636] the figure was 82.7%. For `FC(F)(F)c1cccc(-c2cn(-c3ccsc3)nn2)c1` [CBK112937], the viability at 28.5 h, 10 µM was 88.5%. On the same count and under the same terms, with `COc1nccnc1N1CCN(Cc2ccc(Cl)c(Cl)c2)CC1` [CBK084209] the figure was 92.1%; with `COc1ccc([N+](=O)[O-])cc1CSc1nnc(-c2ccco2)n1C` [CBK269671], 89.3%; with `CC(=O)Nc1ccc(NCc2nc(CC(C)C)no2)c(C(F)(F)F)c1` [CBK305799], 110%. Still for that read-out and setting: with `COc1ccc(-c2cc(NC(=S)NC(=O)/C=C/c3ccccc3)[nH]n2)cc1` [CBK007190] the figure was 97.9%; with `O=C(CNC(=O)c1ccncc1)N/N=C/c1c(O)ccc2ccccc12` [CBK261378], 77%; with `O=C(NCC(CO)Cc1ccccn1)c1ccc2cc[nH]c2c1` (stereo not drawn) [CBK305222], 81.6%. On the same count and under the same terms, with `O=C1CC[C@H](NC(=O)c2cccs2)C(c2cccnc2)N1` (stereo partly drawn) [CBK282901] the figure was 98.5%. As to `Cc1ccc(NC(=O)CN2CCN(Cc3ccc4c(c3)OCO4)CC2)cc1` [CBK074403], the viability at 28.5 h, 10 µM was 102%. On to `Cc1nccc(-c2cccc(NC3CCN(c4ccc5c(c4)OCCO5)CC3)c2)n1` [CBK286439], for which the viability at 28.5 h, 10 µM turned out to be 97.1%. In the case of `CNC(=O)c1cnn2c(C)c(Cc3cccnc3)c(C)nc12` [CBK162165], the viability at 28.5 h, 10 µM turned out to be 78.2%.

For the molecule `CCOC(=O)C1(C2CCCCC2)CCN(C(=O)CCSC)CC1` [CBK136929], the viability at 28.5 h, 10 µM was 113%.

For `O=C(O)C1C2CCC(O2)C1C(=O)Nc1ccc(S(=O)(=O)N2CCc3ccccc32)cc1` (stereo not drawn) [CBK268137], the viability at 28.5 h, 10 µM was 93.1%. Same read-out and setting: for `COc1ccc(-c2cnc(N)c(N3CCN(C)CC3)n2)c(OC)c1OC` [CBK063489] the value was 103%; for `Cc1cc(NC(=O)N2CCCN(CC3CCCCC3)CC2)no1` [CBK306239], 99.9%; for `COc1ccc(/C(C)=N/NC(=O)CSCc2cccc(Br)c2)cc1` [CBK261205], 81.4%. Turning to `CC(=O)c1ccc(-c2nccnc2N[C@@H](CO)C(C)C)s1` [CBK037404], the viability at 28.5 h, 10 µM was determined as 100%. With `COc1ccc(C(=O)N2C[C@@H]3C[C@H](C2)c2ccc(-c4cccnc4)c(=O)n2C3)cc1` [CBK289182], the viability at 28.5 h, 10 µM turned out to be 86.7%. On the same count and under the same terms, for `O=C(Nc1ccc(OCc2ccccc2)cc1)c1cnc2n(c1=O)CCS2` [CBK287378] the value was 91.3%; for `O=S(=O)(Nc1cccc2[nH]ccc12)c1ccc(F)cc1` [CBK153522], 60.9%. On to `COc1ccc([N+](=O)[O-])cc1NC(=O)c1ccc(-c2cc3ccccc3oc2=O)cc1` [CBK267325], for which the viability at 28.5 h, 10 µM came to 79.1%. Regarding `COc1ccc(Cl)cc1-n1c(-c2ccc3ccccc3n2)n[nH]c1=S` [CBK288382], the viability at 28.5 h, 10 µM stood at 95.4%.

In the case of `O=C(c1ncoc1-c1ccc(F)cc1)N1CCN2CCCC2C1` (stereo not drawn) [CBK282399], the viability at 28.5 h, 10 µM stood at 90.1%.

Still in this series, the particulars now being: human, hela cells, % viability, bulk resorufin, single well.
For the molecule `COC(=O)c1cccc(NC(=O)N2CCC3(CC2)OCCO3)c1` [CBK043713], the viability at 28.5 h, 10 µM stood at 91.1%. On the same count and under the same terms, with `CCOC(=O)N1CCC2(CC1)OCc1ccc(-c3ccc(S(C)(=O)=O)cc3)cc1O2` [CBK133035] the figure was 86.1%.
